Assay results as given in patent US10030016B2 (Sunesis Pharmaceuticals, Inc., priority 2009, dated 2018).
Where a name gives a salt, the structure may show the parent alone. Read-outs that look alike come from different tables or passages of the source.

Experiments:
PDK1 = PDK1 (Homo sapiens (Human), UniProt O15530); experiment: PDK1 kinase assay (coupled PDK1/AKT/FAM-crosstide assay, IMAP fluorescence polarization); assay type: biochemical
Method in brief: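 GST-tagged human PDK1 (aa 51-359, 0.75 nM) from insect cells activated unphosphorylated GST-AKT2 (aa 140-467–PIFtide fusion, 10 nM), which phosphorylated 100 nM FAM-crosstide; 40 μM ATP, pH 7.2 Tris/MgCl2, 30 min at 25° C. IMAP fluorescence polarization read-out; ΔmP versus compound concentration fitted with a 4-parameter curve.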

[1] = system: phospho-akt (Thr308) in PC-3 cells; experiment: Inhibition of phospho-akt (Thr308) in PC-3 cells, MSD phospho-akt 308 ELISA kit; assay type: cell-based; conditions: 2 hours, no serum, read-out: EC50
Method in brief: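 Read-out is MSD electrochemiluminescence of Akt phosphorylated at Thr308 in lysates of PC-3 cells treated 2 h with compound in serum-free medium. Wortmannin at 5 μM defined the low control and DMSO the high control.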

[2] = Homo sapiens, inhibition of P308 Akt in PC-3 cells using MSD
[3] = inhibition of phospo-PDK1 in vitro
[4] = Homo sapiens, inhibition of P308 Akt in PC-3 cells, MSD
[5] = Homo sapiens, PC-3, 2 h, inhibition of P308 Akt in PC-3 cells using MSD

Chain of PDK1 (O15530 51-359): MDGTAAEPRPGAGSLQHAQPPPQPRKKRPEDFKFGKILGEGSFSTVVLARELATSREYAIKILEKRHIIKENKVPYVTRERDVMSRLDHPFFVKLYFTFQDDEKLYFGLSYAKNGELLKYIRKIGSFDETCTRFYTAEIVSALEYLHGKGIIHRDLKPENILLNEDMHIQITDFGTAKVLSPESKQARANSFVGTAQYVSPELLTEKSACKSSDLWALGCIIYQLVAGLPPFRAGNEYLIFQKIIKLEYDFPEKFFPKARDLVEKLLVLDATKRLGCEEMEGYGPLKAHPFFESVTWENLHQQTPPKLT

IC50 (PDK1; inhibition of PDK1 in vitro) [µM] | EC50 [1, 2] [µM] | IC50 (PDK1; [3]) [µM] | EC50 [1, 4] [µM] | Structure (SMILES) | also measured
< 0.1 | < 1 |  |  | C[C@H](NC(=O)c1nc(C#N)cnc1N[C@H](C)c1ccc(-c2c[nH]c3ncnc(N)c23)cc1)c1ccc(F)c(F)c1 [Example 402, 3-((R)-1-(4-(4-amino-7H-pyrrolo[2,3-d]pyrimidin-5-yl)phenyl)ethylamino)-6-cyano-N-((S)-1-(3,4-difluorophenyl)ethyl)pyrazine-2-carboxamide] | 
 |  | > 5 | > 10 | C[C@H](NC(=O)c1cccnc1N[C@@H](COc1ccc([N+](=O)[O-])c(N)c1)c1cccc(Cl)c1)c1ccc(F)c(F)c1 [Example 16.7, 2-((R)-2-(3-amino-4-nitrophenoxy)-1-(3-chlorophenyl)ethylamino)-N-((S)-1-(3,4-difluorophenyl)ethyl)nicotinamide] | 
0.1 to 1 |  |  |  | Nc1cnc(-c2ccc(CNc3ncc(C(F)(F)F)cc3C(=O)Nc3ccc(F)cc3)cn2)cn1 [Example 325] | EC50 [1, 5]: 1 to 10 µM
 |  | > 5 | 1 to 10 | CC(C)Oc1cc(CNc2ncccc2C(=O)NC(C)(C)C)cc(-c2c[nH]c3ncc(C(=O)NC4CC4)cc23)c1 [Example 4.1.15, 3-[3-({[(3-tert-butylcarbamoyl)pyridin-2-yl]amino}methyl)-5-(propan-2-yloxy)phenyl]-N-cyclopropyl-1H-pyrrolo[2,3-b] pyridine-5-carboxamide] | 
< 0.1 | < 1 |  |  | Nc1ncnc2ccc(-c3ccc(CNc4ncc(S(=O)(=O)NCCO)cc4C(=O)NCc4ccc(F)c(F)c4)s3)cc12 [Example 343, 2-((5-(4-aminoquinazolin-6-yl)thiophen-2-yl)methyl)amino)-(N-(3,4-difluorobenzyl)-5-(N-(2-hydroxyethyl)sulfamoyl)nicotinamide] | 
< 0.1 | 1 to 10 |  |  | O=C(NCc1ccc(F)c(F)c1)c1cccnc1NCc1cc(-c2c[nH]c3ncc(-c4ccc[nH]4)cc23)ccn1 [Example 336] | 
 |  | 0.1 to 1 | 1 to 10 | O=C(NCc1ccc(F)c(F)c1)c1cccnc1NCc1ccc(-c2c[nH]c3ncncc23)s1 [Example 4.7, 2-(((5-(7H-pyrrolo[2,3-d]pyrimidin-5-yl)thiophen-2-yl)methyl)amino)-N-(3,4-difluorobenzyl)nicotinamide] | 
 |  | < 0.1 | 1 to 10 | CC(C)Oc1cc(CNc2ncccc2C(=O)NCc2ccc(F)c(F)c2)cc(-c2c[nH]c3ncncc23)c1 [Example 5.8, N-(3,4-difluorobenzyl)-2-{[3-(propan-2-yloxy)-5-(7H-pyrrolo[2,3-d]pyrimidin-5-yl)benzyl]amino}pyridine-3-carboxamide] | 
> 5 | > 10 |  |  | CNC(=O)c1cc(S(=O)(=O)NCCO)cnc1NCc1ccc(-c2ccc3ncnc(N)c3c2)s1 [Example 342] | 
 |  | < 0.1 | 1 to 10 | C[C@H](NC(=O)c1cccnc1NCc1ccc(-c2ccc3ncnc(N)c3c2)s1)c1cccc(F)c1 [Example 3.21, 2-({[5-(4-aminoquinazolin-6-yl)thiophen-2-yl]methyl}amino)-N-[(1S)-1-(3-fluorophenyl)ethyl]pyridine-3-carboxamide (TFA salt)] | 
< 0.1 | > 10 |  |  | Cc1cnc2c3cc(-c4ccc(CNc5ncccc5C(=O)N[C@@H](C)c5ccc(F)c(F)c5)s4)ccc3ncn12 [Example 49, (S)-N-(1-(3,4-difluorophenyl)ethyl)-2-((5-(3-methyl-imidazo[1,2-c]quinazolin-9-yl)thiophen-2-ylmethyl)amino) nicotinamide] | 
 |  | < 0.1 | < 1 | Nc1n[nH]c2ncc(-c3ccc(CNc4ncc(C(F)(F)F)cc4C(=O)Nc4ccc(F)cc4)cc3)cc12 [Example 38, 2-[4-(3-Amino-1H-pyrazolo[3,4-b]pyridin-5-yl)-benzylamino]-N-(4-fluoro-phenyl)-5-trifluoromethyl-nicotinamide] | 
 |  | < 0.1 | < 1 | COc1ccnc(NCc2ccc(-c3ccc4ncnc(N)c4c3)s2)c1C(=O)N[C@@H](C)c1ccc(F)cc1 [Ex. 7.6, (S)-2-(((5-(4-aminoquinazolin-6-yl)thiophen-2-yl)methyl)amino)-N-(1-(4-fluoro-phenyl)ethyl)-4-methoxynicotinamide] | 
0.1 to 1 |  |  |  | C[C@H](NC(=O)c1cc(C#N)cnc1NCc1ccc(-c2ccc(C(N)=O)nc2)cc1)c1ccc(F)cc1 [Example 114, (S)-5-(4-((5-cyano-3-(1-(4-fluorophenyl)ethylcarbamoyl)pyridin-2-ylamino)methyl)phenyl)picolinamide] | EC50 [1, 5]: > 10 µM
> 5 | > 10 |  |  | C[C@H](NC(=O)c1cc(C#N)cnc1NCc1ccc(-c2cccc3n[nH]c(=O)n23)cc1)c1ccc(F)cc1 [Example 144, (S)-5-cyano-N-(1-(4-fluorophenyl)ethyl)-2-(4-(3-oxo-2,3-dihydro-[1,2,4]triazolo[4,3-a]pyridin-5-yl)benzyl-amino)nicotinamide] | 
< 0.1 | < 1 |  |  | C[C@H](NC(=O)c1nc(C#N)cnc1NCc1ccc(-c2cnc(N)c(CCC(C)(C)N)n2)cc1)c1ccc(F)c(F)c1 [Example 84, 3-{4-[5-Amino-6-(3-amino-3-methyl-butyl)-pyrazin-2-yl]-benzylamino}-6-cyano-pyrazine-2-carboxylic acid [(S)-1-(3,4-difluoro-phenyl)-ethyl]-amide] | 
< 0.1 | < 1 |  |  | C[C@H](NC(=O)c1cc(C#N)cnc1NCc1ccc(-c2cnc3[nH]nc(CCCN)c3c2)cc1)c1ccc(F)cc1 [Example 150] | 
< 0.1 | < 1 |  |  | C[C@H](NC(=O)c1cc(C(F)(F)F)cnc1NCc1ccc(-c2cnc3[nH]ncc3c2)cc1)c1ccc(F)c(F)c1 [Example 394, N-[(S)-1-(3,4-Difluoro-phenyl)-ethyl]-2-[4-(1H-pyrazolo [3,4-b]pyridin-5-yl)-benzylamino]-5-trifluoromethyl-nicotinamide] | 
> 5 | > 10 |  |  | C[C@H](NC(=O)c1cc(C#N)cnc1NCc1ncc(-c2cnc3[nH]ncc3c2)cn1)c1ccc(F)cc1 [Example 64, 5-Cyano-N-[(S)-1-(4-fluoro-phenyl)-ethyl]-2-{[5-(1H-pyrazolo[3,4-b]pyridin-5-yl)-pyrimidin-2-ylmethyl]-amino}-nicotinamide] | 
 |  | > 5 | > 10 | C[C@H](NC(=O)c1cccnc1NCc1ccc(-c2ccc3ncc(-n4cccn4)nc3c2)s1)c1ccc(F)c(F)c1 [Example 4.26, (S)-2-(((5-(3-(1H-pyrazol-1-yl)quinoxalin-6-yl)thiophen-2-yl)methyl)amino)-N-(1-(3,4-difluorophenyl)ethyl)nicotinamide] | 
 |  | < 0.1 | 1 to 10 | Nc1ncnc2ccc(-c3ccc(CNc4nccnc4C(=O)NCc4cccc(F)c4)s3)cc12 [Example 3.73, 3-({[5-(4-aminoquinazolin-6-yl)thiophen-2-yl]methyl}amino)-N-(3-fluorobenzyl) pyrazine-2-carboxamide (TFA salt)] | 
 |  | 0.1 to 1 | 1 to 10 | C=C1c2ccnc(NCc3ccc(-c4ccc5ncnc(N)c5c4)s3)c2C(=O)N1Cc1ccc(F)c(F)c1 [Ex. 7.20] | 
< 0.1 |  |  |  | C[C@H](NC(=O)c1cc(C#N)cnc1NCc1ccc(-c2c[nH]c3ncnc(N)c23)c(F)c1)c1ccc(F)cc1 [Example 100, (S)-2-(4-(4-amino-7H-pyrrolo[2,3-d]pyrimidin-5-yl)-3-fluorobenzylamino)-5-cyano-N-(1-(4-fluorophenyl)ethyl) nicotinamide] | EC50 ([1]; inhibition of P308 Akt in PC-3 cells using MSD): 1 to 10 µM
 |  | < 0.1 | < 1 | O=C(NCc1ccc(F)c(F)c1)c1cccnc1NCc1ccc(-c2cnc3[nH]ncc3c2)cc1 [Example 2.35, 2-(4-(1H-pyrazolo[3,4-b]pyridin-5-yl)benzylamino)-N-(3,4-difluorobenzyl)nicotinamide] | 
< 0.1 | < 1 |  |  | C[C@H](NC(=O)c1cc(C(F)(F)F)cnc1NCc1ccc(-c2cnc(N)cn2)cc1)c1ccc(F)cc1 [Example 379, (S)-2-(4-(5-aminopyrazin-2-yl)benzylamino)-N-(1-(4-fluorophenyl)ethyl)-5-(trifluoromethyl)nicotinamide] | 
